Patent publication US20230172914A1, “BIOMARKER-BASED THERAPEUTIC COMPOSITION” (WELLMARKER BIO CO., LTD., priority 2019, published 2023)

Columns and labels:
RON mutant (Δ155) = test: Kinase assay for RON mutant Δ155 in transfected Colo320HSR (immunoprecipitation, Western blotting); assay type: cell-based; conditions: Colo320HSR transfected with RONΔ155, 2 hours of drug treatment
Experimental: (§1) As a way capable of replacing RON mutant, each of the mutants (Δ160, Δ155) was transfected into Colo320HSR, a RON-negative cell line, and the cell line was subjected to treatment with Example 18 or Comparative Example 1 at respective concentrations. Then, it was checked, through immunoprecipitation and Western blotting, whether expression of active RON decreases. The detailed method is as follows. The RON-negative Colo320SHR colon cancer cell line was transfected with 12 ug of each of RONΔ160 and RON Δ155 using lipofectamine 2000 (Invitrogen, cat #11668-019). For the same transfection efficiency, after 24 hours, the transformed strains were dispensed into a 60-mm dish. 48 hours after transfection, treatment with drugs of Comparative Example 1 and Example 18 was performed, respectively, in a dose-dependent manner. After 2 hours of drug treatment, the cells were collected and washed with PBS. Then, the washed cells were lysed with RIPA Lysis Buffer (T&I, cat #BRI-9001).
(§2) Protein concentrations were quantified using the Bradford (BioRad, cat #5000205) method. […]
(§3) Electrophoresis was performed using SDS-PAGE, and then proteins were transferred to PVDF membrane. […] The developed film was analyzed with densitometry using Image-J, and then IC50 was calculated using Graphpad Prism (GraphPad Software, Inc.).

KM12C cell line tumor = test: Effective dose concentration in animal model transplanted with KM12C; assay type: in vivo, BALB/c nude mice; conditions: once a day for 2 weeks
Experimental: (§4) 5-Week-old female BALB/c nude mice were purchased and acclimatized for 1 week. Then, human-derived colon cancer cell line KM12C (1.5×10^6 cells/mice) was diluted in PBS, and injected subcutaneously (100 μl) into the right dorsal side of the mice. Example 18 was orally administered at respective doses when the tumor reached a size of about 100 mm^3. The drug was administered once a day for 2 weeks, and tumor size and body weight were measured twice a week to perform comparative analysis. After completion of the drug administration, the experimental animals were euthanized, and then the tumors were extracted and weighed to perform comparative analysis.

KM12C (RONΔ160) = test: Cell death-inducing ability, trypan blue exclusion, KM12C; assay type: cell-based, human; conditions: 48 hours
Experimental: The cell death-inducing ability of Example 18 and Comparative Example 1 was measured in KM12C with RON mutant (Δ160), a cetuximab-resistant cell line, and Colo320HSR cell line, a cell line not expressing RON. The two colon cancer cell lines were seeded, respectively, onto 60-mm plates at 2×10^5 cells. Then, after 24 hours, while performing medium exchange, the cells were subjected to treatment with the sample compounds at respective concentrations (1 μM, 5 μM) for 48 hours. After 48 hours, the cells and cell suspensions were collected (1,500 rpm, 3 minutes), and live cells and dead cells were quantitated (n=2) through trypan blue (15250-061, Gibco) exclusion assay.

active RON (pTyr-RON) = test: Western blotting of active RON in KM12C; assay type: cell-based, human
Experimental: The cell killing efficacy of Example 18 and Comparative Example 1 was analyzed, and then the cells were collected. Western blotting was performed to identify inhibitory capacity of Example 18 on active RON. RIPA Lysis Buffer (T&I) was added to the respective cells so as to achieve lysis. Then, BCA kit (Pierce) was used to quantify proteins. The proteins were loaded onto 6% SDS-polyacrylamide with a protein concentration of 40 μg, and electrophoresis was performed at 125 V.
Subsequently, the proteins were reacted with primary antibody (active RON, beta actin), which was diluted 1:1,000 in 5% non-fat skim milk-TBST solution, at 4° C. for 24 hours or 48 hours. Then, washing with TBST was performed three times. The resultant was reacted with anti-rabbit and anti-mouse IgG conjugated horseradish peroxidase (HRP) secondary antibody, which was diluted at 1:1,000, at room temperature for 2 hours. Then, washing with TBST was washed three times. Subsequently, the membrane was treated with the ECL solution (GE Healthcare), and developed by exposure to an X-ray film. Then, the bands were checked.

RON mutant (Δ160) = biological target: T1, RON mutant (Δ160) (Homo sapiens, UniProt Q04912); test: Kinase assay for RON mutant Δ160 in transfected Colo320HSR (immunoprecipitation, Western blotting); assay type: cell-based; conditions: Colo320HSR transfected with RONΔ160, 2 hours of drug treatment
T1 construct: expressed in transfected cells; host or cells: Colo320HSR (RON-negative colon cancer cell line)
T1 sequence (Q04912 25-1294 isoform Q04912-7 limits assumed): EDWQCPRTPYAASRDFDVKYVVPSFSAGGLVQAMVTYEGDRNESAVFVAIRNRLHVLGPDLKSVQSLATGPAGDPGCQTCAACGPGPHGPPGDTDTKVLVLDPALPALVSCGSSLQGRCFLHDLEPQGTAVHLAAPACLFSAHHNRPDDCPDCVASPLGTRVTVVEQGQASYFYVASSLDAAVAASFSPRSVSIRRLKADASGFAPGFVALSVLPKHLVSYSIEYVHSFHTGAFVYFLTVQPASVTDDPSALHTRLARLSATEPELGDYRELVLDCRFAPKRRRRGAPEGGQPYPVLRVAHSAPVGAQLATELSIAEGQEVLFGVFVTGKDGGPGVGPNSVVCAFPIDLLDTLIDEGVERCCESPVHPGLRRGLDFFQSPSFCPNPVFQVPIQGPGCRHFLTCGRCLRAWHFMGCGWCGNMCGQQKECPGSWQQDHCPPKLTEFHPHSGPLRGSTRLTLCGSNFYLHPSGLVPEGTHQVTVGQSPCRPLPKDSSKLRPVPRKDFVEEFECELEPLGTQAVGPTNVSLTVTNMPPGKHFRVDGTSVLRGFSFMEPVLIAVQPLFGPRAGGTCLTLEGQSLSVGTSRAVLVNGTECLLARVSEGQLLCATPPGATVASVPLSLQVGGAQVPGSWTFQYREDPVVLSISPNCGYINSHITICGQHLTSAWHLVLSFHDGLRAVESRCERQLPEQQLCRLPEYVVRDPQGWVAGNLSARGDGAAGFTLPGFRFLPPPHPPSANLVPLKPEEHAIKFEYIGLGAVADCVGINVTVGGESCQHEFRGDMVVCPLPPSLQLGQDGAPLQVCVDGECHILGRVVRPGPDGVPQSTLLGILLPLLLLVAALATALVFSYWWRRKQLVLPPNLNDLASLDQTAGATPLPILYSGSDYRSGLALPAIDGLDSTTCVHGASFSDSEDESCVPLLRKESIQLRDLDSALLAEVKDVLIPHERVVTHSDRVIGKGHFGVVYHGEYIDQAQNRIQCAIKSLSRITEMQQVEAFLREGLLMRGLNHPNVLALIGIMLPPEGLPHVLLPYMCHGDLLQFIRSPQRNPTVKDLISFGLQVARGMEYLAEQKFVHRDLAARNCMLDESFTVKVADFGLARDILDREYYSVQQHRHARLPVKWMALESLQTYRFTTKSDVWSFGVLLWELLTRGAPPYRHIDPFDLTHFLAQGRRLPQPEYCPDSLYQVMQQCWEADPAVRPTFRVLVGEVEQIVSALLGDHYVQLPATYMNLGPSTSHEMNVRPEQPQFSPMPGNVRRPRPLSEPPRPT
T1 sequence (Q04912 25-304 partner limits assumed): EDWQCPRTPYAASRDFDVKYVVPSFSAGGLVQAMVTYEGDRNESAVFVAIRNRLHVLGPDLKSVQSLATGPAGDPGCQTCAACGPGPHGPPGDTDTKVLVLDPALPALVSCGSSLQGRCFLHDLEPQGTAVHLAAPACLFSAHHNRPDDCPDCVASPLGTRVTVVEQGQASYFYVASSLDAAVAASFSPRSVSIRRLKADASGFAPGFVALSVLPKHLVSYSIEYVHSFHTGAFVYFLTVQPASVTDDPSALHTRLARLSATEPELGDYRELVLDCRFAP
Experimental: as §1, §2, §3

[1] = test system: colon cancer patient-derived cancer tissue (RON mutant: Δ160); test: Efficacy in animal model transplanted with colon cancer patient tissue, 50 mpk; assay type: in vivo, BALB/c nude mice; conditions: 50 mpk oral, daily for 4 weeks
Experimental: as §4, with “5-week-old” for “5-Week-old”, “Then,” for “Then, human-derived”, “patient-derived cancer tissue” for “cell line KM12C (1.5×10^6 cells/mice)”, “transplanted” for “diluted in PBS, and injected subcutaneously (100 μl)”, “administered” for “administered at respective doses”, “4” for “2”
As a result, it was identifiable that tumor growth is inhibited in a case where Example 18 is administered to an animal model (RON mutant: Δ160) into which tumor cells in colon cancer patients have been transplanted. The drug was orally administered on a daily basis, and the dose used was 50 mpk. As a result of drug administration for 4 weeks, it was identified that tumor growth is inhibited by 80% or more (FIG. 18). In addition, after completion of the drug administration, the tumor tissues were extracted and weighed to perform comparative analysis. […] The lower pictures of FIG. 19 show tumors extracted from representative individuals of the respective groups.

CCOc1ccn(-c2ccc(F)cc2)c(=O)c1C(=O)Nc1ccc(Oc2ccnc3cc(-c4ccc(CN5CCOCC5)cn4)sc23)c(F)c1.Cl [Example 18, 4-ethoxy-N-[3-fluoro-4-({2-[5-(morpholinomethyl)pyridin-2-yl]thieno[3,2-b]pyridine-7-yl}oxy)phenyl]-1-(4-fluorophenyl)-2-oxo-1,2-dihydropyridine-3-carboxamide hydrochloride]
inhibition of RON activity (degree of active RON) (RON mutant (Δ155)): high inhibition efficacy as compared with Comparative Example 1 | tumor growth (KM12C cell line tumor; oral at respective doses): inhibited in a concentration-dependent manner | effective dose concentration (KM12C cell line tumor; oral): 5.214 mpk | Cell death, KM12C (RONΔ160) (KM12C (RONΔ160); 1 μM): 29.0 | Cell death, KM12C (RONΔ160) (KM12C (RONΔ160); 5 μM): 35.2 | expression of active RON (Western blotting) (active RON (pTyr-RON)): decreases | inhibition of RON activity (degree of active RON) (RON mutant (Δ160)): high inhibition efficacy as compared with Comparative Example 1 | tumor growth inhibition (extracted tumor weight) compared with the vehicle [1]: about 83% | tumor growth inhibition (tumor size) [1]: ≥ 80%
